Common to all, as to format: biochemical
For experiment [1], the target named is CDK2 enzyme, complexed with cyclin A (Homo sapiens, UniProt P24941). The experiment can be described thus: CDK2 cyclin dependent kinase assay, phosphorylation of synthetic peptide […] (33P-ATP filtration). To be noted: 0.1 mM ATP. As to the method: (§1) The assay mixture containing the inhibitor and CDK2 enzyme, complexed with cyclin A (0.4 U/ml) was mixed together in a microtiter plate in a final volume of 50 μl and incubated for 40 min at 30° C. The assay mixture contained 0.1 mM unlabeled ATP, 0.01 μCi/μl ^33P-γ-ATP, 0.03 mM peptide, 0.1 mg/ml BSA, 7.5 mM magnesium acetate, 50 mM HEPES-NaOH, pH 7.5. The reaction was stopped by adding 50 μl of 50 mM phosphoric acid. 90 μl of the mixture were transferred to a pre-wetted 96-well Multiscreen MAPHNOB filtration plate (Millipore) and filtered on a vacuum manifold. The filter plate was washed with three successive additions of 200 μl 50 mM phosphoric acid and then with 100 μl methanol. The filtration plate was dried for 10 min at 65° C., scintillant added and phosphorylated peptide quantified in a scintillation counter (Trilux, PerkinElmer).
HEPES is N-[2-hydroxyethyl]piperazine-N′-[2-ethanesulfonic acid]. BSA is bovine serum albumin.

Experiment [2] concerns the target T1, PDK1 enzyme (Homo sapiens, UniProt O15530).
T1 sequence (O15530 1-556): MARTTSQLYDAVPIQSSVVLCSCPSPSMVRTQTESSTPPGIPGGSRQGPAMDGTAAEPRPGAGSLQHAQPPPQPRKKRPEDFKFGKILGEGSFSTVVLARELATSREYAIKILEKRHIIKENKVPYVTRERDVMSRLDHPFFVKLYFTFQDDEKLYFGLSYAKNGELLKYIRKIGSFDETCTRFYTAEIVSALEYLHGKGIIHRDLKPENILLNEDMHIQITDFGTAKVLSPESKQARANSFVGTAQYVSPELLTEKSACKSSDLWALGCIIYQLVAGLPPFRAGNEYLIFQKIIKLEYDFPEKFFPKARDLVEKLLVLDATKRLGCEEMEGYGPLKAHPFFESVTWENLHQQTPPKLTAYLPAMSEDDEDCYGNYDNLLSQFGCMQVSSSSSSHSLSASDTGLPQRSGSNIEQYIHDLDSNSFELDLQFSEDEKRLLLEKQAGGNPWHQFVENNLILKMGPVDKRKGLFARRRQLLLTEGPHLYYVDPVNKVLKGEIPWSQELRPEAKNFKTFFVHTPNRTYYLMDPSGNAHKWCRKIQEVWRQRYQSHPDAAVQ
The experiment can be described thus: PDK1 3'-phosphoinositide-dependent kinase assay, phosphorylation of synthetic peptide (33P-ATP filtration). The settings on record: 0.01 mM ATP, read-out: PDK1 IC50. As to the method:
as §1, with “and PDK1 enzyme” for “and CDK2 enzyme, complexed with cyclin A (0.4 U/ml)”, “for 60” for “for 40”, “contained 0.01” for “contained 0.1”, “^33P-γ-ATP, 0.075” for “^33P-γ-ATP, 0.03”, “acetate, 0.05 M Tris.HCl,” for “acetate, 50 mM HEPES-NaOH,”, “pH 7.5, 0.5% 2-mercaptoethanol.” for “pH 7.5.”

In experiment [3] the target is T2, Chk1 (Homo sapiens, UniProt O14757).
T2 sequence (O14757 1-476): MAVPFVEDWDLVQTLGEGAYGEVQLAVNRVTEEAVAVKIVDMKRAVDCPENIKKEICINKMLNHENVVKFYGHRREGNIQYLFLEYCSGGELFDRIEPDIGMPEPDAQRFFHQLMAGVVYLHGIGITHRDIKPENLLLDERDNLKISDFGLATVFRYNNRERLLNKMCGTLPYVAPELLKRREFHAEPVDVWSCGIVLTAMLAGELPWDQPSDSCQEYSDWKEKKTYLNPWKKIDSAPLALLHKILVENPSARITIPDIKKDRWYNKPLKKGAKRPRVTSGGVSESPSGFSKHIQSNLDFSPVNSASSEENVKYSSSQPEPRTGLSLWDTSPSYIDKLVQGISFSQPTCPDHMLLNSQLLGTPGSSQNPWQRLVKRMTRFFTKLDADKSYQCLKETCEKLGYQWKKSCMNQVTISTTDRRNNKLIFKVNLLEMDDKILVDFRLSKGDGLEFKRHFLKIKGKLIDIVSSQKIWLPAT
The experiment can be described thus: Chk1 kinase assay, phosphorylation of Chktide (33P-ATP filtration). To be noted: 0.01 mM ATP, read-out: Chk1 IC50. As to the method: Assays for the Chk1 kinase activity were carried out by monitoring the phosphorylation of a synthetic peptide Chktide with the amino acid sequence, […]. The assay mixture containing the inhibitor and Chk1 enzyme was mixed together in a microtiter plate in a final volume of 50 μl and incubated for 40 minutes at 30° C.
The assay mixture contained 0.01 mM unlabeled ATP, 0.5 μCi ^33P-γ-ATP, 30 μM Chktide, 0.1 mg/ml BSA, 50 mM Hepes-NaOH pH 7.5 and 11 nM GST-Chk1 enzyme. The reaction was stopped by adding 50 μl of 50 mM phosphoric acid. 90 μl of the mixture was transferred to a pre-wetted 96-well Multiscreen MAPHNOB filtration plate (Millipore) and filtered on a vacuum manifold. The filter plate was washed with three successive additions of 200 μl 50 mM phosphoric acid and then with 100 μl methanol. The filtration plate was dried for 10 min at 65° C., scintillant added and phosphorylated peptide quantified in a scintillation counter (Trilux, PerkinElmer).

SMILES strings stand for the structures. Like-named read-outs stand apart in the source and are kept apart here.

`NS(=O)(=O)c1ccc(Nc2cc(NCc3ccccc3)nc3ncnn23)cc1` [Example 58]: the IC50 in experiment [1] (Table 2) is 13.6 µM; in experiment [2] (Table 2) it was > 200 µM; in experiment [3] (Table 2) it was > 200 µM.

For `NS(=O)(=O)c1ccc(Nc2cc(N3CCCC(CO)C3)nc3ncnn23)cc1` (stereo not drawn) [Example 23], the results for the IC50 in experiment [1] (Table 1), in experiment [2] (Table 1) and in experiment [3] (Table 1) were 0.33 µM, > 200 µM and > 200 µM, respectively.

Consider `CCN(CC)CCNC(=O)c1ccc(Nc2cc(Cc3cc(OC)ccc3OC)n3ncnc3n2)cc1` [Example 128], for which the results for the IC50 in experiment [1] (Table 3), in experiment [2] (Table 3) and in experiment [3] (Table 3) were > 200 µM, > 200 µM and 65.8 µM, respectively.

For the molecule `Fc1cccc(-c2cc(Nc3ccc(N4CCOCC4)cc3)nc3ncnn23)c1` [Example 113], the figures for the IC50 in experiment [1] (Table 3), in experiment [2] (Table 3) and in experiment [3] (Table 3) were > 200 µM, 46.5 µM and 5.62 µM, respectively.

As for `NC(=O)c1cccc(Nc2cc(-c3cccc(F)c3)n3ncnc3n2)c1` [Example 134], the values for the IC50 in experiment [1] (Table 3), in experiment [2] (Table 3) and in experiment [3] (Table 3) were > 200 µM, 8.09 µM and 23.2 µM, respectively.

Consider `CC(C)c1cc(Nc2ccc(S(C)(=O)=O)cc2)n2ncnc2n1` [Example 78], for which the half-inhibitory concentration (IC50) is 7.42 µM in experiment [1] (Table 2), > 200 µM in experiment [2] (Table 2) and > 200 µM in experiment [3] (Table 2).

With `CCOC(=O)c1ccc(Nc2cc(-c3cccc(O)c3)nc3ncnn23)cc1` [Example 50], the half-inhibitory concentration (IC50) was 31.9 µM in experiment [1] (Table 1), > 200 µM in experiment [2] (Table 1) and > 200 µM in experiment [3] (Table 1).

For the molecule `NC(=O)c1ccc(Nc2cc(-c3cccc(OCc4ccccc4)c3)n3ncnc3n2)cc1` [Example 149], the half-maximal inhibitory concentration (IC50) in experiment [1] (Table 4) was 8.41 µM; in experiment [2] (Table 4), 2.26 µM; in experiment [3] (Table 4), 4.12 µM.

Turning to `Clc1cc(Nc2ccc3cn[nH]c3c2)n2ncnc2n1` [Example 48], the IC50 in experiment [1] (Table 1) is 13.5 µM; in experiment [2] (Table 1), > 200 µM; in experiment [3] (Table 1) it was > 200 µM.

Regarding `COc1ccc(-c2cc(Nc3cccc(Cl)c3)n3ncnc3n2)nc1` [Example 54], the IC50 in experiment [1] (Table 1), in experiment [2] (Table 1) and in experiment [3] (Table 1) was > 200 µM in each case.

Consider `NS(=O)(=O)c1ccc(Nc2cc(NC(CCO)c3ccccc3)nc3ncnn23)cc1` (stereo not drawn) [Example 10], for which the IC50 in experiment [1] (Table 1) was 5.74 µM; in experiment [2] (Table 1), > 200 µM; in experiment [3] (Table 1), > 200 µM.

On to `CCN(CC)CCNC(=O)c1ccc(Nc2cc(Cc3ccccc3)n3ncnc3n2)cc1` [Example 124], for which the IC50 in experiment [1] (Table 3) is > 200 µM; in experiment [2] (Table 3) it was > 200 µM; in experiment [3] (Table 3), 15.8 µM.

In the case of `O=S(=O)(c1ccccc1)c1ccc(Nc2cc(Cl)nc3ncnn23)cc1` [Example 88], the figures for the IC50 in experiment [1] (Table 2), in experiment [2] (Table 2) and in experiment [3] (Table 2) were 5.98 µM, > 200 µM and 11.9 µM, respectively.

With `NS(=O)(=O)c1ccc(Nc2cc(N3CCCCC3)nc3ncnn23)cc1` [Example 34], the IC50 in experiment [1] (Table 1) was 0.62 µM; in experiment [2] (Table 1), > 200 µM; in experiment [3] (Table 1), > 200 µM.

Regarding `NCCCOc1cccc(-c2cc(Nc3ccc(C(N)=O)cc3)nc3ncnn23)c1` [Example 147], the IC50 was 71.7 µM in experiment [1] (Table 4), 6.13 µM in experiment [2] (Table 4) and 5.21 µM in experiment [3] (Table 4).

For the molecule `COc1ccc(Nc2cc(Cl)nc3ncnn23)cn1` [Example 42], the 50% inhibitory concentration (IC50) was 11.8 µM in experiment [1] (Table 1), > 200 µM in experiment [2] (Table 1) and > 200 µM in experiment [3] (Table 1).

On to `Cc1cc(Nc2ccc(S(C)(=O)=O)cc2)n2ncnc2n1` [Example 77], for which the IC50 in experiment [1] (Table 2) is 124 µM; in experiment [2] (Table 2), > 200 µM; in experiment [3] (Table 2), > 200 µM.

In the case of `NC(=O)c1cccc(Nc2cc(Cl)nc3ncnn23)c1` [Example 22], the IC50 was 36.7 µM in experiment [1] (Table 1), > 200 µM in experiment [2] (Table 1) and > 200 µM in experiment [3] (Table 1).

As for `CCOc1cc(Nc2ccc(S(N)(=O)=O)cc2)n2ncnc2n1` [Example 12], the IC50 in experiment [1] (Table 1) was 13 µM; in experiment [2] (Table 1) it was > 200 µM; in experiment [3] (Table 1) it was > 200 µM.

Take `CCN(CC)CCNC(=O)c1ccc(Nc2cc(-c3cccc(C#N)c3)nc3ncnn23)cc1` [Example 28]: the IC50 is 18.6 µM in experiment [1] (Table 1), > 200 µM in experiment [2] (Table 1) and > 200 µM in experiment [3] (Table 1).

As for `Oc1ccc(Cl)cc1Nc1cc(Cl)nc2ncnn12` [Example 32], the results for the IC50 in experiment [1] (Table 1), in experiment [2] (Table 1) and in experiment [3] (Table 1) were 31.6 µM, > 200 µM and > 200 µM, respectively.

Consider `C[C@H]1CCCC(Oc2cc(Nc3ccc(S(N)(=O)=O)cc3)n3ncnc3n2)C1` (stereo partly drawn) [Example 5], for which the IC50 is 6.4 µM in experiment [1] (Table 1), > 200 µM in experiment [2] (Table 1) and > 200 µM in experiment [3] (Table 1).

Regarding `CCN(c1cc(Nc2ccc(S(C)(=O)=O)cc2)n2ncnc2n1)C(C)C` [Example 85], the results for the IC50 in experiment [1] (Table 2), in experiment [2] (Table 2) and in experiment [3] (Table 2) were 0.86 µM, 2.89 µM and > 200 µM, respectively.

As to `CCN(CC)c1cc(NCc2ccc(S(C)(=O)=O)cc2)n2ncnc2n1` [Example 103], the figures for the IC50 in experiment [1] (Table 2), in experiment [2] (Table 2) and in experiment [3] (Table 2) were 29.8 µM, > 200 µM and > 200 µM, respectively.

In the case of `CCOC(=O)c1ccc(Nc2cc(Cl)nc3ncnn23)cc1` [Example 53], the half-maximal inhibitory concentration (IC50) in experiment [1] (Table 1), in experiment [2] (Table 1) and in experiment [3] (Table 1) was > 200 µM in each case.

Turning to `NC(=O)c1ccc(Nc2cc(Cc3ccccc3)n3ncnc3n2)cc1` [Example 123], the IC50 in experiment [1] (Table 3) was > 200 µM; in experiment [2] (Table 3) it was > 200 µM; in experiment [3] (Table 3), 31.4 µM.

As for `NS(=O)(=O)c1ccc(Nc2cc(N3CCC(O)CC3)nc3ncnn23)cc1` [Example 19], the values for the IC50 in experiment [1] (Table 1), in experiment [2] (Table 1) and in experiment [3] (Table 1) were 0.99 µM, > 200 µM and > 200 µM, respectively.

Regarding `NC(=O)c1ccc(Nc2cc(-c3cccc(F)c3)nc3ncnn23)cc1` [Example 45], the IC50 in experiment [1] (Table 1) was 12.3 µM; in experiment [2] (Table 1), > 200 µM; in experiment [3] (Table 1), > 200 µM.

Regarding `CCN(CC)c1cc(Nc2ccccc2)n2ncnc2n1` [Example 82], the IC50 in experiment [1] (Table 2) is 4.66 µM; in experiment [2] (Table 2) it was > 200 µM; in experiment [3] (Table 2), > 200 µM.

As to `NS(=O)(=O)c1cccc(Nc2cc(Cl)nc3ncnn23)c1` [Example 52], the 50% inhibitory concentration (IC50) was 40.9 µM in experiment [1] (Table 1), > 200 µM in experiment [2] (Table 1) and > 200 µM in experiment [3] (Table 1).
